Reference: patent US20050221411A1, “Interaction of NMDA receptor with the protein tyrosine phosphatase step in psychotic disorders” (AGY Therapeutics, Inc., priority 2003, published 2005)
“Also recorded” adds a separate entry of the source.

Tests used:
[1] = system: NMDA receptor / ERK phosphorylation; assay: NMDAR mediated ERK phosphorylation in cultured cortical neurons (Western blot); assay type: cell-based
Experimental: […] SDS-PAGE was performed and western blotting used to detect ERK phosphorylation levels.
ERK phosphorylation in cultured cortical neurons (10-13 division) can be elicited by activation of NMDARs.

GABAA receptor b subunit = assay: Surface expression of GABAA receptor b subunit in neurons (biotinylation, Western blot); assay type: cell-based; settings: versus RNAi-Scrambled
Excerpt: (§1) Interfering RNA molecules were introduced into neurons by AMAXA nucleofection. To specifically knockdown STEP the oligo used had the sequence 5′-[…]-3′, a control siRNA that is predicted not to knock down levels of any gene products (sequence 5′-[…]-3′ was also used (Dharmacon, Lafayette, Colo.). Interfering RNA molecules were introduced into neurons using the AMAXA nucleofection technique (AMAXA, Gaithersburg, Md.) using the manufacturers protocol. Neurons were allowed to grow in culture for 3-4 days prior to experimental procedures.
(§2) Neurons were washed with ice cold PBS. Sulfo-NHS-LC-Biotin (Pierce Biotechnology, Rockford, Ill.) was dissolved at 1.5 mg/ml in ice cold PBS and incubated with the cells for 1 hour at […]. Excess biotin was washed off the cells with ice cold PBS and cells lysed and harvested as above. […] of protein lysate was incubated with 100 μl of neutravadin agarose slurry (Pierce Biotechnology) overnight at […]. The complexes were washed thoroughly and proteins eluted from the beads by resuspension in SDS loading buffer and boiling for 10 mins. Proteins were loaded on 8% Tris-gicine gels and separated by SDS-PAGE. Western blotting was performed by standard means using the indicated antibodies.

[2] = system: GluR1 subunit of AMPA receptors; assay: Surface expression of AMPA receptor GluR1 subunit in neurons (biotinylation, Western blot); assay type: cell-based; settings: versus RNAi-Scrambled
Excerpt: as §1, §2

NMDA receptors = assay: NMDA mediated calcium influx in cultured cortical neurons after RNAi (FLEXstation); assay type: cell-based, rat; settings: 1 μM NMDA, four days after transfection, versus scrambled RNA molecule
[3] = system: NMDA receptors (NR1, NR2A, NR2B); assay: Surface expression of NMDA receptor subunits in neurons (biotinylation, Western blot); assay type: cell-based
Excerpt: as §1, §2

STEP61 = assay: Knockdown of STEP protein by RNAi in cultured cortical neurons (Western blot); assay type: cell-based, rat
Experimental: Single stranded interfering RNA molecules (RNAi) were designed to be complementary to the sequence of STEP by standard means. The sequence used was 5′ AAACAUGCGAACAGUAUCAGU 3′. A standard scrambled RNA molecule of sequence 5′-CAG TCG CGT TTG CGA CTG G-3′ was used as a control. Dissociated cortical neurons were prepared from E18 rat embryos by standard protocols. The dissociated neurons were mixed with 90 ul of rat Nucleofector solution to give a final concentration of 4.8×10^6 cells/90 ul. The cells were mixed with 20 ug of RNAi and transferred to an electroporation cuvette. Using an AMAXA Nucleofector cells were electroporated using standard settings. Cells were transferred from the electroporation cuvette to poly-D-lysine coated 96 well plates for calcium flux assays or 6 well plates for Western blotting procedures and grown in standard neuronal media at 37° C. with 5% CO2 for 4 days.
Knockdown of endogenous STEP protein levels was visualized by Western blotting. Four days after electroporation cells were harvested and lysed with lysis buffer (150 mM NaCl, 50 mM Tris pH 7.6, 1% triton, in the presence of a protease inhibitor cocktail and 1 mM sodium orthovanadate) on ice. […] Levels of STEP protein were determined by Western blotting using anti-STEP antibodies (FIG. 6).

EGF receptors = assay: Surface expression of EGF receptors in neurons (biotinylation, Western blot); assay type: cell-based; settings: versus RNAi-Scrambled
Excerpt: as §1, §2

`CN[C@H](CC(=O)O)C(=O)O` [NMDA, N-methyl-D-aspartate] was tested. Which ERK phosphorylation levels ([1]; 100 μM NMDA for 5 minutes, cultured cortical neurons (10-13 division)) did it give?
The ERK phosphorylation levels was “significant ERK phosphorylation; also recorded: significantly increased”.

Which results are given for “5′ AAACAUGCGAACAGUAUCAGU 3′ (guide AAACAUGCGAACAGUAUCAGU; siRNA; RNA, backbone and methylation of C not given here; single-stranded interfering RNA) [RNAi-STEP]”?
surface levels of the GABAA receptor b subunit (GABAA receptor b subunit): unaffected; surface levels of the GluR1 subunit of AMPA receptors [2]: unaffected; Ca influx elicited by application of NMDA (NMDA receptors): increase in NMDA receptor mediated Ca influx; Ca influx elicited by application of NMDA (NMDA receptors; listed as inhibitory RNA to STEP): larger NMDA response; total levels of each subunit ([3]; RNAi-STEP or RNAi-Scrambled): the same; levels of surface NR1 ([3]; versus RNAi-Scrambled): increased; levels of surface NR2A ([3]; versus RNAi-Scrambled): increased; levels of surface NR2B ([3]; versus RNAi-Scrambled): increased; levels of STEP61 protein (STEP61; cultured cortical neurons, four days after transfection, versus scrambled RNA molecule): lower levels of STEP61 protein; STEP levels in the total protein lysate (STEP61; neurons, AMAXA nucleofection, relative to RNAi-Scrambled): knocked down; surface levels of EGF receptors (EGF receptors): unaffected

For `N[C@H](CCCP(=O)(O)O)C(=O)O` [D-APV, D-2-amino-5-phosphonopentanoic acid], which “NMDA stimulated ERK phosphorylation” value ([1]; D-APV 200 μM, stimulation with 100 μM NMDA for 5 minutes) is on record?
The value was “blocked; also recorded: inhibits”.
